Test results as given in patent US12201745B2, “Vascular extracellular matrix hydrogel” (University of Pittsburgh—Of the Commonwealth System of …, priority 2016, dated 2025).

Columns and labels:
[1] = system: Primary human adventitia-derived endothelial cells; assay: Endothelial cell branching assay (tube-like structures on GFR-Matrigel); assay type: cell-based; conditions: 100 nM
Description: FIGS. 13A-13C. Effect of ECM bioscaffolds on network formation of tube-like structures in vitro. FIG. 13A—Human adventitia-derived endothelial cells were cultured on growth factor reduced-Matrigel substrates: (A) DMSO, 0.05% (v/v), (B) Digestion buffer (1% (w/v) Pepsin in 0.1 N HCl), (C) pAdv ECM, and (D) pSIS ECM. FGF2 inhibitor PD173074 (100 nM) was added to the culture medium of above treatments shown in parallel wells (E-H). A-H: One representative 10× field is shown, selected from one of three replicates of two independent experiments. All scale bars=50 μm for (A-H). Quantification of the number (FIG. 13B) and total length (FIG. 13C) of tube-like structures from 5×5 stitched fields captured at 10× for non-ECM-supplemented (open bars), pAdv (solid bars) and pSIS (gray bars) ECM-supplemented substrates in the absence and presence of PD173074. Bars represent mean of three assay replicates ±standard deviation. Images and graphs represent data from one of two independent experiments. *Significant from pepsin HCl, p<0.02; #Significant from pAdv ECM-treated cells in the absence of PD173074, p<0.03.
Endothelial Cell Branching Assay. […] Total number and length of tube-like structures were quantified using NIS Elements Software.

[2] = system: chick chorioallantoic membrane (CAM); assay: Chick chorioallantoic membrane (CAM) model of in vivo angiogenesis; conditions: 100 nM PD173074 with 250 μg/mL pAdv ECM bioscaffold in fibrin scaffold
Description: FIGS. 14A-14D. Effect of ECM bioscaffolds on angiogenesis in vivo. FIG. 14A) Representative bright field images of scaffolds before (Time 0) and after (72 hr) incubation on the chorioallantoic membrane (CAM) of the chick embryo. […] There was no appreciable angiogenic response detected around scaffolds loaded with digestion buffer (1% (w/v) pepsin in 0.1 N HCl) or DMSO. Addition of the FGF2 inhibitor PD173074 (100 nM) abrogated the angiogenic response to pAdv ECM. […] All scale bars for FIG. 14A=5 mm. FIG. 14B) Representative histological cross-sections of CAM assay scaffolds. The CAM vasculature was visualized using injected tomato lectin-Dylight® 650 (red) and nuclei are labeled with Hoechst dye (blue). A dashed white line denotes the scaffold/CAM interface. […] The maximum tested dose of pAdv ECM (500 μg/mL) inhibited invasion of blood vessels into the scaffold. […] All scale bars in FIG. 14B and FIG. 14C=[…] *Avascular zone comprised of lectin-negative cells. FIG. 14D). […] (*) avascular zone comprised of lectin-negative cells. All scale bars for FIG. 14D=20 μm.
Chick Chorioallantoic Membrane (CAM) Model of In Vivo Angiogenesis. […]

CCN(CC)CCCCNc1ncc2cc(-c3cc(OC)cc(OC)c3)c(NC(=O)NC(C)(C)C)nc2n1 [PD173074]
effect on tube-like formation on non-ECM substrates ([1]; Matrigel alone or pepsin HCl-supplemented substrates): did not affect tube-like formation | effect on tube-like formation on ECM-supplemented substrates ([1]; pAdv and pSIS ECM bioscaffold-supplemented substrates vs absence of inhibitor): decreased the tube-like formation | effect on pAdv ECM bioscaffold-induced angiogenesis [2]: completely inhibited
